Test results from ChEMBL document CHEMBL4627269, “New thiopyrimidine-benzenesulfonamide conjugates as selective carbonic anhydrase II inhibitors: synthesis, in vitro biological evaluation, and molecular docking studies” (Bioorg Med Chem, 2020).

How the values were obtained:
Carbonic anhydrase 9 = Carbonic anhydrase 9 (Homo sapiens, UniProt Q16790); assay: Inhibition of human carbonic anhydrase 9 incubated for 15 mins prior to testing measured for 10 to 100 secs by phenol red dye based stopped-flow CO2 hydration assay
Carbonic anhydrase 1 = Carbonic anhydrase 1 (Homo sapiens, UniProt P00915); assay: Inhibition of human carbonic anhydrase 1 incubated for 15 mins prior to testing measured for 10 to 100 secs by phenol red dye based stopped-flow CO2 hydration assay
Carbonic anhydrase 2 [1] = biological target: T1, Carbonic anhydrase 2 (Homo sapiens, UniProt P00918); assay: Inhibition of recombinant human carbonic anhydrase 2 incubated for 15 mins prior to testing measured for 10 to 100 secs by phenol red dye based stopped-flow CO2 hydration assay
Carbonic anhydrase 2 [2] = biological target: T1, Carbonic anhydrase 2; assay: Inhibition of recombinant human carbonic anhydrase 2 expressed in Escherichia coli BL21 (DE3) using 4-nitrophenyl acetate as substrate incubated for 10 mins prior to testing by spectrophotometric method
Carbonic anhydrase 12 = Carbonic anhydrase 12 (Homo sapiens, UniProt O43570); assay: Inhibition of human carbonic anhydrase 12 incubated for 15 mins prior to testing measured for 10 to 100 secs by phenol red dye based stopped-flow CO2 hydration assay
Chain of Carbonic anhydrase 12 (O43570 whole entry): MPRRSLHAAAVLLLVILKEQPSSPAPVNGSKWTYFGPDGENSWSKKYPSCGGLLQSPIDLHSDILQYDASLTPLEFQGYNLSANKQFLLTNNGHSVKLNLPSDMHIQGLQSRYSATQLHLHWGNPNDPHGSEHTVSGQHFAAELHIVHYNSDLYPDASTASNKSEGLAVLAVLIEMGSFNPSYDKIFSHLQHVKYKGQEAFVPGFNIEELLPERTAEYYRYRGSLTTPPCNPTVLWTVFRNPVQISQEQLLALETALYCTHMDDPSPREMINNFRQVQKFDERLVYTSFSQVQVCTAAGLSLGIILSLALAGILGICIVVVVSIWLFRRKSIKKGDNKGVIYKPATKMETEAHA

Chain of Carbonic anhydrase 1 (P00915 whole entry): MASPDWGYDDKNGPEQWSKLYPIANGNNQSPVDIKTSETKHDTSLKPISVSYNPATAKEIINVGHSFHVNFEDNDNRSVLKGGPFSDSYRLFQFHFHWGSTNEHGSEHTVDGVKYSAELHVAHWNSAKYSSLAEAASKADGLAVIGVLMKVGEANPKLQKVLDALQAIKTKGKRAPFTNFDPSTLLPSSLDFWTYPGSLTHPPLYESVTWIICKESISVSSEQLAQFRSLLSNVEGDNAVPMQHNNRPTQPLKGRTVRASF

Ki (Carbonic anhydrase 9) | Ki (Carbonic anhydrase 1) | SMILES | other results
0.82 µM |  | NS(=O)(=O)c1ccc(Nc2ccnc(SCC(=O)c3ccc(F)cc3)n2)cc1 | 
> 100 µM |  | NS(=O)(=O)c1ccc(Nc2ccnc(SCC(=O)c3ccc(Cl)cc3)n2)cc1 | 
2.51 µM | > 100 µM | COc1ccc(C(=O)CSc2nccc(Nc3ccc(S(=O)(=O)Nc4ncccn4)cc3)n2)cc1 | Ki (Carbonic anhydrase 2 [1]): > 100 µM
0.16 µM |  | NS(=O)(=O)c1ccc(Nc2ccnc(SCC(=O)c3ccccc3)n2)cc1 | 
 |  | NS(=O)(=O)c1ccc(Nc2ccnc(NS(=O)(=O)c3cccc(C(F)(F)F)c3)n2)cc1 | Ki (Carbonic anhydrase 2 [2]): 1 nM
0.55 µM |  | O=C(CSc1nccc(Nc2ccc(S(=O)(=O)Nc3cncs3)cc2)n1)c1ccc(Cl)cc1 | 
> 100 µM | > 100 µM | O=C(CSc1nccc(Nc2ccc(S(=O)(=O)Nc3ccccn3)cc2)n1)c1ccc(Cl)cc1 | 
> 100 µM |  | NS(=O)(=O)c1ccc(Nc2ccnc(SCC(=O)c3ccc(Br)cc3)n2)cc1 | 
8.94 µM | > 100 µM | Cc1cc(NS(=O)(=O)c2ccc(Nc3ccnc(SCC(=O)c4ccc(Cl)cc4)n3)cc2)no1 | 
5.17 µM |  | COc1ccc(C(=O)CSc2nccc(Nc3ccc(S(N)(=O)=O)cc3)n2)cc1 | 
> 100 µM |  | O=C(CSc1nccc(Nc2ccc(S(=O)(=O)Nc3cncs3)cc2)n1)c1ccc(C(F)(F)F)cc1 | 
92.1 µM | > 100 µM | Cc1cc(NS(=O)(=O)c2ccc(Nc3ccnc(SCC(=O)c4ccc(F)cc4)n3)cc2)no1 | Ki (Carbonic anhydrase 12): > 100 µM
> 100 µM |  | COc1ccc(C(=O)CSc2nccc(Nc3ccc(S(=O)(=O)Nc4cc(C)on4)cc3)n2)cc1 | 
 |  | NS(=O)(=O)c1ccc(Nc2ccnc(NS(=O)(=O)c3cccnc3)n2)cc1 | Ki (Carbonic anhydrase 2 [2]): 4 nM
> 100 µM |  | O=C(CSc1nccc(Nc2ccc(S(=O)(=O)Nc3cncs3)cc2)n1)c1ccccc1 | 
> 100 µM | > 100 µM | COc1ccc(C(=O)CSc2nccc(Nc3ccc(S(=O)(=O)Nc4ccccn4)cc3)n2)cc1 | Ki (Carbonic anhydrase 2 [1]): > 100 µM
0.23 µM | > 100 µM | NS(=O)(=O)c1ccc(Nc2ccnc(SCC(=O)c3ccc(-c4ccccc4)cc3)n2)cc1 | 
> 100 µM |  | CC(=O)NS(=O)(=O)c1ccc(Nc2ccnc(SCC(=O)c3ccc(Cl)cc3)n2)cc1 | 
39.2 µM |  | NS(=O)(=O)c1ccc(Nc2ccnc(SCC(=O)c3ccc(C(F)(F)F)cc3)n2)cc1 | 
> 100 µM | > 100 µM | O=C(CSc1nccc(Nc2ccc(S(=O)(=O)Nc3ccccn3)cc2)n1)c1ccccc1 | 
